According to patent US20020127605A1 (priority 2000, published 2002):

Each molecule was assayed against T1, recombinant rat CyPA-GST fusion protein (Rattus norvegicus, UniProt P10111) (assay: Rotamase (prolyl peptidyl cis-trans isomerase) inhibition, chymotrypsin-coupled cuvette assay). Details: not given.
T1 construct: made in house; host or cells: E. coli BL21
T1 sequence (P10111 2-164): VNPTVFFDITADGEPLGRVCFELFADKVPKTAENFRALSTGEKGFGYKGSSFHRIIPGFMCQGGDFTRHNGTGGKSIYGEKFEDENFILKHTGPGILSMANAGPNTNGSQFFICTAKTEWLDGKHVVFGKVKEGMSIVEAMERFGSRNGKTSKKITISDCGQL
Assay type: biochemical
From the text: A number of substrates for rotamase are known in the art or can be derived from those known. Typically, the substrate contacts a sample containing a protein with rotamase activity and the conversion of the substrate is detected after a period of time. The method for detecting conversion of the substrate will vary with the particular substrate chosen. One method has been termed the Ki test (See Harding, et al., Nature, 341:758-760 (1989). The cis-trans isomerization of an alanine-proline bond in a model substrate, N-succinyl-Ala-Ala-Pro-Phe-p-nitroanilide, is monitored spectrophotometrically in a chymotrypsin-coupled assay. The action of chymotrypsin releases p-nitroaniline from only the trans form of the substrate. The amount of p-nitroaniline can be monitored in a spectrophotometer, for example. Other methods of detecting the presence of p-nitroaniline can also be used. The inhibition of this reaction caused by different concentrations of inhibitor is determined and the data are analyzed as a change in first-order rate constant as a function of inhibitor concentration, which yields the Ki value.
The following were added to a plastic cuvette: […] of ice cold assay buffer (25 mM HEPES, pH 7.8, 100 mM NaCl), 10 μL of CyP A (2.5 μM in 10 mM Tris-Cl pH 7.5, 100 mM NaCl, 1 mM dithiothreitol), 25 μL of chymotrypsin (50 mg/ml in 1 mM HCl), and 10 μL of test compound, at various concentrations, in dimethyl sulfoxide. The reaction was initiated by the addition of 5 μL of substrate (succinyl-Ala-Phe-Pro-Phe-para-nitroanilide, 5 mg/mL in 470 mM LiCl in trifluoroethanol). The absorbance at 390 nm versus time was monitored for 90 seconds using a spectrophotometer and the rate constants were determined from the absorbance versus time data files.
The IC50 values that were obtained for representative compounds in the following Table I refer to the concentration that inhibits 50% of the rotamase activity in a sample. […] The Cyclophilin utilized was a recombinant rat CyPA-GST fusion protein: CypA was amplified from rat brain cDNA using standard PCR methods, primed with the following sequences: 5′ CCCCCCGGGAGTCAACCCCACCGTGTTCTTCGA 3′ and 5′ GGAGATCTAGAGTTGTCCACAGTCGGAGATGGT 3′. The resulting fragment (573 base pairs) was cloned into pCRII and amplified. The CyP sequence was cut out with Smal and EcoRl and cloned into the Smal/EcoRl sites in pGEX2TK (Pharmacia). This plasmid was transformed into BL21 E. coli cells for expression of the GST-CyPA fusion protein.
Molecule `Cc1ccc(S(=O)(=O)N(c2cccc(NC(=O)Nc3cc(Cl)cc(Cl)c3)c2)S(=O)(=O)c2ccc(C)cc2)cc1` [Compound 2] has an IC50 of 149 nM.
For `COc1ccc(S(=O)(=O)N(c2cccc(NC(=O)c3cc(Cl)cc(Cl)c3)c2)S(=O)(=O)c2ccc(C)cc2)cc1` [Compound 3], the IC50 was 955 nM.
Work on `O=C(Nc1cccc(N(S(=O)(=O)c2cc(Cl)cc(Cl)c2)S(=O)(=O)c2cc(Cl)cc(Cl)c2)c1)Nc1c(Cl)cccc1Cl` [Compound 6] yielded an IC50 of 990 nM.
Work on `O=C(Nc1cc(Cl)cc(Cl)c1)Nc1cccc(N(S(=O)(=O)c2cc(Cl)cc(Cl)c2)S(=O)(=O)c2cc(Cl)cc(Cl)c2)c1` [Compound 7] yielded an IC50 of 1220 nM.
Work on `O=C(Nc1cc(Cl)cc(Cl)c1)[C@@H]1CC[C@H](NC(=S)Nc2cc(Cl)cc(Cl)c2)C1` [Compound 17] yielded an IC50 of 854 nM.
`O=C(Nc1cccc(Oc2ccccc2)c1)Nc1cc(C(F)(F)F)cc(C(F)(F)F)c1` [Compound 26] gave an IC50 of 1560 nM.
For `O=C(Nc1cc(Cl)cc(Cl)c1)Nc1ccccc1NC(=O)Nc1cc(Cl)cc(Cl)c1` [Compound 27], the IC50 was 667 nM.
In the case of `O=C(Nc1ccccc1NC(=O)c1ccc(I)cc1)c1ccc(I)cc1` [Compound 29], the IC50 is reported as 940 nM.

Same assay, conditions: recombinant rat CyPA-GST fusion protein; values without asterisk; read-out: IC50 (rotamase activity)
Molecule `COc1ccc(S(=O)(=O)N(c2cccc(NC(=O)Nc3cc(Cl)cc(Cl)c3)c2)S(=O)(=O)c2ccc(C)cc2)cc1` [Compound 1, [(3,5-dichlorophenyl)amino]-N-(3-{[(4-methoxylihenyl)sulfonyl][(4-methylphenyl)sulfonyl]amino}phenyl)formamide] has an IC50 of 162 nM.
For `COc1ccc(S(=O)(=O)N(c2cccc(N(S(=O)(=O)c3cc(Cl)cc(Cl)c3)S(=O)(=O)c3cc(Cl)cc(Cl)c3)c2)S(=O)(=O)c2ccc(C)cc2)cc1` [Compound 4, (3-{bis[(3,5-dichlorophenyl)sulfonyl]amino}phenyl)[(4-methoxy-phenyl)sulfonyl][(4-methylphenyl)sulfonyl]amine], the IC50 was 995 nM.
In the case of `COc1ccc(S(=O)(=O)N(c2cccc(N(S(=O)(=O)c3cc(Cl)cc(Cl)c3)S(=O)(=O)c3cc(Cl)cc(Cl)c3)c2)S(=O)(=O)c2ccc(OC)cc2)cc1` [Compound 10, (3-{Bis[(3,5-dichlorolphenyl)sulfonyl]amino}phenyl)bis[(4-methoxyphenyl)sulfonyl]amine], the IC50 is reported as 732 nM.
With `FC(F)(F)c1cc(NC(=S)NC2CCCCC2NC(=S)Nc2cc(C(F)(F)F)cc(C(F)(F)F)c2)cc(C(F)(F)F)c1` (stereo not shown) [Compound 12, {[3,5-bis(trifluoromethyl)phenyl]amino}({2-[({[3,5-bis(trifluoromethyl)phenyl]amino}thioxomethyl)amino]cyclohexyl}amino)methane-1-thione] the IC50 was 767 nM.
In the case of `S=C(Nc1ccc(Cl)c(Cl)c1)NC1CCCCC1NC(=S)Nc1ccc(Cl)c(Cl)c1` (stereo not shown) [Compound 14, [(3,4-dichlorophenyl)amino]{[2-({[(3,4-dichlorophenyl)amino]thioxomethyl}amino)cyclohexyl]amino}methane-1-thione], the IC50 is reported as 786 nM.
`S=C(Nc1cc(Cl)cc(Cl)c1)NC1CCCCC1NC(=S)Nc1cc(Cl)cc(Cl)c1` (stereo not shown) [Compound 15, [(3,5-dichlorophenyl)amino]{[2-({[(3,5-dichlorophenyl)amino]thioxomethyl}amino)cyclohexyl]amino}methane-1-thione] showed an IC50 of 610 nM.
In the case of `O=C(Nc1cc(Cl)cc(Cl)c1)N[C@H]1CC[C@@H](NC(=O)Nc2cc(Cl)cc(Cl)c2)CC1` [Compound 16, cis-[(3,5-Dichlorophenyl)amino]-N-(4-{[(3,5-dichlorolphenyl)amino]carbonylamino}cyclohexyl)formamide], the IC50 is reported as 1530 nM.
`O=C(Nc1cc(Cl)cc(Cl)c1)[C@@H]1C=C[C@H](NC(=S)Nc2cc(Cl)cc(Cl)c2)C1` [Compound 18, (1S,3R)-N-(3,5-dichlorophenyl)[4-({[(3,5-dichlorolphenyl)amino]thioxomethyl}amino)cyclopent-2-enyl]formamide] showed an IC50 of 901 nM.
`O=C(Nc1cc(Cl)cc(Cl)c1)[C@H]1CC[C@@H](NC(=S)Nc2cc(Cl)cc(Cl)c2)C1` [Compound 19] gave an IC50 of 754 nM.
Molecule `S=C(Nc1cc(Cl)cc(Cl)c1)Nc1cccc(C=C(c2ccc(Cl)cc2)c2ccc(Cl)cc2)c1` [Compound 20] has an IC50 of 188 nM.
Work on `O=C(NNC(=S)Nc1cc(Cl)cc(Cl)c1)c1cccc(OCc2cc(C(F)(F)F)cc(C(F)(F)F)c2)c1` [Compound 23] yielded an IC50 of 895 nM.
For `O=C(COc1cccc(NC(=O)c2cc(Cl)cc(Cl)c2)c1)Nc1cc(Cl)cc(Cl)c1` [Compound 24, N-(3,5-dichlorophenyl)-2-{3-[(3,5-dichlorolphenyl)carbonylamino]phenoxy}ethanamide], the IC50 was 909 nM.
Molecule `O=C(Nc1cccc(OS(=O)(=O)c2c(F)c(F)c(F)c(F)c2F)c1)c1cc(Cl)cc(Cl)c1` [Compound 25, 3-[(3,5-dichlorophenyl)carbonylamino]phenyl 2,3,4,5,6-penta-fluorobenzenesulfonate] has an IC50 of 964 nM.
`S=C(Nc1cc(Cl)cc(Cl)c1)Nc1ccccc1NC(=S)Nc1cc(Cl)cc(Cl)c1` [Compound 28, [(3,5-dichlorophenyl)amino]{[2-({[(3,5-dichlorophenyl)amino]thioxomethyl}amino)phenyl]amino}methane-1-thione] gave an IC50 of 1100 nM.
“bis[(3,5-dichlorophenyl)sulfonyl](3-{[(naphthylamino) thioxomethyl]amino}phenyl)amine [Compound 5]” gave an IC50 of 783 nM.

What follows are molecules tested against human recombinant CyPA (Homo sapiens, UniProt P62937) (assay: Semiautomated microtiter plate assay of rotamase activity inhibition). Details: 30 minute preincubation at 4° C., read-out: IC50 (rotamase inhibition, modified plate reader assay).
Sequence of human recombinant CyPA (P62937 whole entry): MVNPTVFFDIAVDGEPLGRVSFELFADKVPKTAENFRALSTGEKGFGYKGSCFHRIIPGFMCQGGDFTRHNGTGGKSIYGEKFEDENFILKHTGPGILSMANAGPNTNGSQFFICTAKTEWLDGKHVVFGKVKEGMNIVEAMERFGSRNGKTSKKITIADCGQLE
Assay type: biochemical
Method: Semiautomated Assay of Rotamase Activity Inhibition: Rotamase inhibition was determined using a semiautomated microtiter plate assay modification of the above described assay [see Küillertz et al., Clin. Chem. 44, 502-508 (1998)]. All dilutions of CyPA, peptide substrate, and chymotrypsin were made in 35 mM ice-cold HEPES buffer. Fifty μL of CyPA solution were added to 50 μL of peptide substrate solution (Phe-Pro-Phe p-nitroanilide, 0.16 mg/ml) in a glass microtiter well plate (the concentration of human recombinant CyP being adjusted so that the reaction rate is increased by a factor of 3 as compared to an uncatalyzed control reaction wherein the peptide substrate is degraded by chymotrypsin alone, in the absence of CyPA and test compound). Using a Beckman Multimek™ 96 automated 96-channel pipettor, 5 μL of test compound solution, or a DMSO blank, were added to each well for a 30 minute preincubation at 4° C. One hundred μL of chymotrypsin solution (1 mg/mL) were added to each well and the absorbance at 390 nm versus time was monitored for 9-10 minutes using a BioRad Ultramark plate reader maintained at 4° C. and the rate constants were determined from the absorbance versus time data files. The cyclophilin utilized was a human recombinant CyPA [Yoo et al., J. Mol. Biol., 269 (1997) 780-95].
IC50 values which were obtained for representative compounds using this modified plate reader assay of rotamase inhibition are given in the following Table II: […]
In the case of `O=S(=O)(c1cc(Cl)cc(Cl)c1)N(c1cccc(N(S(=O)(=O)c2ccc3ccccc3c2)S(=O)(=O)c2ccc3ccccc3c2)c1)S(=O)(=O)c1cc(Cl)cc(Cl)c1` [Compound 9, (3-{Bis[(3,5-dichlorophenyl)sulfonyl]amino}phenyl)bis(2-naphthylsulfonyl)amine], the IC50 is reported as 309 nM.
`O=C(CCCCCc1cccc(C(F)(F)F)c1)Nc1cccc(C(=O)NNC(=S)Nc2ccc(Cl)c(Cl)c2)c1` [Compound 32, 1-{[1-Aza-2-oxo-7-(3-trifluoromethylphenyl)]heytyl}-3-{[5-(3 4-dichlorophenyl)-1-oxo-2,3,5-triaza-4-thio]pentyl}benzene] was tested, and the IC50 was 154 nM.
`O=C(CCCCc1ccccc1)Nc1cccc(S(=O)(=O)NC(=S)Nc2ccc(Cl)c(Cl)c2)c1` [Compound 34A] showed an IC50 of 4640 nM.
In the case of `O=C(CCCCc1ccccc1)Nc1cccc(S(=O)(=O)NC(=O)Nc2ccc(Cl)c(Cl)c2)c1` [Compound 34B], the IC50 is reported as 19100 nM.
`O=C(CCCCc1ccccc1)Nc1cccc(S(=O)(=O)NNC(=S)Nc2ccc(Cl)c(Cl)c2)c1` [Compound 35] showed an IC50 of 372 nM.
In the case of `O=C(CCCCCCc1ccccc1)Nc1cccc(C(=O)NNC(=S)Nc2ccc(Cl)c(Cl)c2)c1` [Compound 37, 1-{3-[(7-Phenyl)heptanoylamino]benzoyl}-4-(3,4-dichlorophenyl)thiosemicarbazide], the IC50 is reported as 532 nM.
Molecule `O=C(CCCCc1cccs1)Nc1cccc(C(=O)NNC(=S)Nc2ccc(Cl)c(Cl)c2)c1` [Compound 38, 1-{[1-Aza-2-oxo-6-(thien-2-yl)]hexyl}-3-{[5-(3,4-dichlorophenyl)-1-oxo-2,3,5-triaza-4-thio]pentyl}benzene] has an IC50 of 672 nM.
Molecule `O=C(CCCCc1ccccc1)Nc1cccc(/C=N/NC(=S)Nc2ccc(Cl)c(Cl)c2)c1` [Compound 39, N-{3-[(1E)-2-aza-2-({[(3,4-dichlorophenyl)amino]thioxomethyl}amino)vinyl]phenyl}-5-phenylpentanamide] has an IC50 of 1410 nM.
